Measurements taken from patent US4526989A, “1,4-Bis (substituted-amino)-5,8-dihydroxy-anthraquinones and leuco bases thereof” (priority 1979, dated 1985).
Where two headings read alike, the source gives them in different places.

Tests used:
[1] = tested on: lymphocytic leukemia P388; test: Lymphocytic leukemia P388 test (intraperitoneal administration); assay type: in vivo, DBA/2 mice
Experimental: The animals used are DBA/2 mice all of one sex, weighing a minimum of 17 g. and all within a 3 gram weight range. There are 5 or 6 animals per test group. The tumor transplant is by intraperitoneal injection of 0.1 ml. of dilute ascitic fluid containing 10^6 cells of lymphocytic leukemia P388. The test compounds are administered intraperitoneally on days one, 5 and 9 (relative to tumor inoculation) at various doses. The animals are weighed and survivors are recorded on a regular basis for 30 days. The median survival time and the ratio of survival time for treated (T)/control (C) animals are calculated.

[2] = tested on: melanotic melanoma B16; test: Melanotic Melanoma B16 test; assay type: in vivo, C57BC/6 mice
Experimental: The animals used are C57BC/6 mice, all of the same sex, weighing a minimum of 17 g. and all within a 3-g. weight range. There are normally 10 animals per test group. A one-gram portion of melanotic melanoma B16 tumor is homogenized in 10 ml. of cold balanced salt solution and a 0.5-ml. aliquot of the homogenate is implanted intraperitoneally into each of the test mice. The test compounds are administered intraperitoneally on days one through 9 (relative to tumor inoculation) at various doses. The animals are weighed and survivors are recorded on a regular basis for 60 days. The median survival time and the ratio of survival time for treated (T)/control (C) animals are calculated. […] The criterion for efficacy is T/C×100≥125%.

[3] = 0.04 mg./kg. i.p., days 1, 5 and 9
[4] = 0.09 mg./kg. i.p., days 1, 5 and 9
[5] = 0.19 mg./kg. i.p., days 1, 5 and 9
[6] = 0.39 mg./kg. i.p., days 1, 5 and 9
[7] = 0.78 mg./kg. i.p., days 1, 5 and 9
[8] = 1.5 mg./kg. i.p., days 1, 5 and 9
[9] = 3.1 mg./kg. i.p., days 1, 5 and 9
[10] = 6.2 mg./kg. i.p., days 1, 5 and 9
[11] = 12.5 mg./kg. i.p., days 1, 5 and 9
[12] = Mus musculus, P388, ip, read-out: T/C × 100
[13] = Mus musculus, P388, ip, 0.09 mg./kg. i.p., days 1, 5 and 9, efficacy ≥125%, read-out: T/C × 100
[14] = Mus musculus, P388, ip, 0.39 mg./kg. i.p., days 1, 5 and 9, efficacy ≥125%, read-out: T/C × 100
[15] = Mus musculus, P388, ip, 0.78 mg./kg. i.p., days 1, 5 and 9, efficacy ≥125%, read-out: T/C × 100
[16] = Mus musculus, P388, ip, 1.5 mg./kg. i.p., days 1, 5 and 9, efficacy ≥125%, read-out: T/C × 100
[17] = Mus musculus, P388, ip, 3.1 mg./kg. i.p., days 1, 5 and 9, efficacy ≥125%, read-out: T/C × 100
[18] = Mus musculus, P388, ip, 12.5 mg./kg. i.p., days 1, 5 and 9, efficacy ≥125%, read-out: T/C × 100
[19] = 1.5 mg./kg. i.p., days 1 through 9
[20] = Mus musculus, ip, 1.5 mg./kg. i.p., days 1 through 9, efficacy ≥125%, read-out: T/C × 100

SMILES | Median Survival Time [1, 3] | Median Survival Time [1, 4] | Median Survival Time [1, 5] | Median Survival Time [1, 6] | Median Survival Time [1, 7] | Median Survival Time [1, 8] | Median Survival Time [1, 9] | Median Survival Time [1, 10] | Median Survival Time [1, 11] | response vs control in vivo at 0.09 mg/kg [1, 13] | response vs control in vivo at 0.39 mg/kg [1, 14] | response vs control in vivo at 0.78 mg/kg [1, 15] | response vs control in vivo at 1.5 mg/kg [1, 16] | response vs control in vivo at 3.1 mg/kg [1, 17] | response vs control in vivo at 12.5 mg/kg [1, 18] | Median Survival Time [2, 19] | response vs control in vivo at 1.5 mg/kg [2, 20] | also measured
Cl.Cl.O=C1c2c(O)ccc(O)c2C(=O)c2c(NCCNCCO)ccc(NCCNCCO)c21 [1,4-Bis[2-(2-hydroxyethylamino)ethylamino]-5,8-dihydroxyanthraquinone Dihydrochloride] | 20.0 days | 21.0 days | 25.0 days | 27.0 days | > 29.0 days | > 29.0 days | 22.0 days | 20.0 days | 13.0 days | 210% | 270% | > 290% | > 290% | 220% | 130% | > 34.0 days | > 227% | response vs control in vivo at 0.04 mg/kg [1, 12]: 200%; response vs control in vivo at 0.19 mg/kg [1, 12]: 250%; response vs control in vivo at 6.2 mg/kg [1, 12]: 200%; Median Survival Time ([2]; 0.3 mg./kg. i.p., days 1 through 9): 34.0 days; Median Survival Time ([2]; 0.7 mg./kg. i.p., days 1 through 9): > 34.0 days; Median Survival Time ([2]; 3 mg./kg. i.p., days 1 through 9): > 28.5 days; Median Survival Time ([2]; 6 mg./kg. i.p., days 1 through 9): 15.0 days; Median Survival Time ([2]; 12 mg./kg. i.p., days 1 through 9): 11.0 days; response vs control in vivo at 6 mg/kg ([2]; Mus musculus, ip, read-out: T/C × 100): 100%; response vs control in vivo at 0.3 mg/kg ([2]; Mus musculus, ip, 0.3 mg./kg. i.p., days 1 through 9, efficacy ≥125%, read-out: T/C × 100): 227%; response vs control in vivo at 0.7 mg/kg ([2]; Mus musculus, ip, 0.7 mg./kg. i.p., days 1 through 9, efficacy ≥125%, read-out: T/C × 100): > 227%; response vs control in vivo at 3 mg/kg ([2]; Mus musculus, ip, 3 mg./kg. i.p., days 1 through 9, efficacy ≥125%, read-out: T/C × 100): > 190%; response vs control in vivo at 12 mg/kg ([2]; Mus musculus, ip, 12 mg./kg. i.p., days 1 through 9, efficacy ≥125%, read-out: T/C × 100): 73%
CNCCNc1ccc(NCCNC)c2c1C(=O)c1c(O)ccc(O)c1C2=O.Cl.Cl [1,4-Bis[2-(methylamino)ethylamino]-5,8-dihydroxyanthraquinone dihydrochloride] | 17.0 days | 18.0 days | 18.5 days | 19.5 days | 18.5 days | 22.5 days | 22.0 days | 20.0 days | 16.0 days | 171% | 186% | 176% | 214% | 210% | 152% | 33.0 days | 169% | Median Survival Time ([1]; 25 mg./kg. i.p., days 1, 5 and 9): 9.0 days; response vs control in vivo at 0.19 mg/kg ([1]; Mus musculus, P388, ip, 0.19 mg./kg. i.p., days 1, 5 and 9, efficacy ≥125%, read-out: T/C × 100): 176%; response vs control in vivo at 0.04 mg/kg ([1]; Mus musculus, P388, ip, 0.04 mg./kg. i.p., days 1, 5 and 9, efficacy ≥125%, read-out: T/C × 100): 162%; response vs control in vivo at 6.2 mg/kg ([1]; Mus musculus, P388, ip, 6.2 mg./kg. i.p., days 1, 5 and 9, efficacy ≥125%, read-out: T/C × 100): 190%; response vs control in vivo at 25 mg/kg ([1]; Mus musculus, P388, ip, 25 mg./kg. i.p., days 1, 5 and 9, efficacy ≥125%, read-out: T/C × 100): 86%; Median Survival Time ([2]; 0.19 mg./kg. i.p., days 1 through 9): 29.5 days; Median Survival Time ([2]; 0.39 mg./kg. i.p., days 1 through 9): 25.0 days; Median Survival Time ([2]; 0.78 mg./kg. i.p., days 1 through 9): 35.0 days; Median Survival Time ([2]; 3.1 mg./kg. i.p., days 1 through 9): 49.0 days; Median Survival Time ([2]; 6.2 mg./kg. i.p., days 1 through 9): 26.5 days; Median Survival Time ([2]; 12.5 mg./kg. i.p., days 1 through 9): 11.5 days; response vs control in vivo at 0.19 mg/kg ([2]; Mus musculus, ip, 0.19 mg./kg. i.p., days 1 through 9, efficacy ≥125%, read-out: T/C × 100): 151%; response vs control in vivo at 0.39 mg/kg ([2]; Mus musculus, ip, 0.39 mg./kg. i.p., days 1 through 9, efficacy ≥125%, read-out: T/C × 100): 128%; response vs control in vivo at 0.78 mg/kg ([2]; Mus musculus, ip, 0.78 mg./kg. i.p., days 1 through 9, efficacy ≥125%, read-out: T/C × 100): 179%; response vs control in vivo at 3.1 mg/kg ([2]; Mus musculus, ip, 3.1 mg./kg. i.p., days 1 through 9, efficacy ≥125%, read-out: T/C × 100): 251%; response vs control in vivo at 6.2 mg/kg ([2]; Mus musculus, ip, 6.2 mg./kg. i.p., days 1 through 9, efficacy ≥125%, read-out: T/C × 100): 136%; response vs control in vivo at 12.5 mg/kg ([2]; Mus musculus, ip, 12.5 mg./kg. i.p., days 1 through 9, efficacy ≥125%, read-out: T/C × 100): 59%
